Results on seven compounds are retold here after ChEMBL document CHEMBL1133752, “Synthesis and antiviral evaluation of trisubstituted indole N-nucleosides as analogues of 2,5,6-trichloro-1-(beta-D-ribofuranosyl)benzimidazole (TCRB)” (J Med Chem, 2000).

For orientation: IC50 means the point on the concentration scale where inhibition reaches its midpoint. The low end stands for greater potency in that assay, the high end for weaker potency in that assay. For orientation: IC90 means the concentration needed for an effect of 90%. Higher therefore signals weaker potency.

Assay [1] in a line: ELISA assay was performed using BSC-1 cells to determine activity against HSV-1. Type of assay: functional, cell-based, Cercopithecidae.
Assay [2] is described as follows: Inhibition of KB cell growth was determined. Type of assay: functional, cell-based. The conditions noted are these: Homo sapiens.
The test system of assay [3] is HFF. As to the kind of experiment: Antiviral activity against HCMV was determined by plaque reduction assay using HFF cells. The settings on record: Homo sapiens. Type of assay: functional, cell-based.
The test system of assay [4] is HFF. Description: Visual cytotoxicity was scored on HFF cells at time of HCMV plaque enumeration. Type of assay: functional, cell-based. The settings on record: Homo sapiens.
For assay [5], the system named is HFF. As to the kind of experiment: Antiviral activity against HCMV was determined by yield reduction assay using HFF cells. The conditions noted are these: Homo sapiens. Type of assay: functional.

Take `Clc1cc2cc(Br)[nH]c2cc1Cl`: the half-maximal inhibitory concentration (IC50) in assay [1] stood at 70 µM; in assay [2] it was 70 µM; in the assay with HFF [3], 14 µM; with HFF [4], 32 µM.

For the compound `OC[C@H]1O[C@@H](n2c(Cl)nc3cc(Cl)c(Cl)cc32)[C@H](O)[C@@H]1O`, in the assay on HFF [5], the IC90 amounted to 1.4 µM. In addition, the IC50 in assay [1] worked out at 102 µM; in assay [2], 210 µM.

Compound `OC[C@H]1OC(n2c(Cl)cc3cc(Cl)c(Cl)cc32)[C@H](O)[C@@H]1O` (some centres not stated) showed an IC90 in the assay on HFF [5] of 50 µM. Also, the IC50 in assay [1] is more than 100 µM; in assay [2] it was more than 100 µM; in the assay with HFF [3], 42 µM; in the assay with HFF [4], more than 100 µM.

`OC[C@H]1OC(n2c(Br)cc3cc(Cl)c(Cl)cc32)[C@H](O)[C@@H]1O` (some centres not stated): the IC90 with HFF [5] turned out to be 42 µM. Besides, the IC50 in assay [1] was more than 100 µM; in assay [2], more than 100 µM; in the assay with HFF [3], 18 µM; in the assay on HFF [4] it was 100 µM.

With `OC[C@H]1O[C@@H](n2c(SCc3ccccc3)cc3cc(Cl)c(Cl)cc32)CC1O` (some centres not stated), the IC50 stood at 40 µM in assay [1], 60 µM in assay [2], 32 µM in the assay on HFF [3] and 32 µM in the assay with HFF [4].

For the compound `O=C(O)P(=O)(O)O` [FOSCARNET], the figures for the IC50 in the assay on HFF [3] and with HFF [4] were 39 µM and more than 100 µM, respectively.

Take `Nc1nc2c(ncn2COC(CO)CO)c(=O)[nH]1` [GANCICLOVIR]: the 90% effect level in the assay on HFF [5] (IC90) was put at 1.6 µM. For the same compound, the IC50 in assay [1] was 3.5 µM; in assay [2], more than 100 µM; in the assay on HFF [4], more than 100 µM.
